Molecules are shown by their SMILES. Like-named read-outs stand apart in the source and are kept apart here.

Here are results for three compounds from US7598092B2, “Methods, devices, systems and computer program products for stochastic, competitive, force-based analyte detection” (priority 2006, dated 2009).

Assay [1] has as its target Avidin (Gallus gallus, UniProt P02701). The following applies: cited from earlier work.
Assay [2] addresses streptavidin (Streptomyces avidinii, UniProt P22629). The conditions noted are these: cited from earlier work.
Assay [3] addresses Murine galectin 3 (Mus musculus, UniProt P16110). The following applies: Gaussian fit of 10 pN bins.
Assay [4] concerns the target galectin 3 (Mus musculus, UniProt P16110). Put plainly: isothermal titration calorimetry of soluble ligand binding to galectin 3. Also noted: species or system Murine. Background: In ITC the heat of successive injections is recorded.

Chain of Murine galectin 3 (P16110 whole entry): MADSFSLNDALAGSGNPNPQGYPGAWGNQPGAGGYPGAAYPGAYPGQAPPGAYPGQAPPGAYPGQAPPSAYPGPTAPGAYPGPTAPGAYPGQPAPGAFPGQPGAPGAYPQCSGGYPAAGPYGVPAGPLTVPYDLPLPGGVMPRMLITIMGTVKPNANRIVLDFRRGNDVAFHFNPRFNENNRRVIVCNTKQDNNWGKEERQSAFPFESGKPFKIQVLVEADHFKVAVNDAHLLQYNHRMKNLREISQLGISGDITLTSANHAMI
Chain of galectin 3 (P16110 whole entry): as above
Chain of streptavidin (P22629 25-183): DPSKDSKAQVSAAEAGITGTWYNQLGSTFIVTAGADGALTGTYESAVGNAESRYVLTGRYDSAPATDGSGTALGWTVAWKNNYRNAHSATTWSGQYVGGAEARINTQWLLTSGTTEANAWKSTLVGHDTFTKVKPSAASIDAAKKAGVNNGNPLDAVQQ
Chain of Avidin (P02701 25-152): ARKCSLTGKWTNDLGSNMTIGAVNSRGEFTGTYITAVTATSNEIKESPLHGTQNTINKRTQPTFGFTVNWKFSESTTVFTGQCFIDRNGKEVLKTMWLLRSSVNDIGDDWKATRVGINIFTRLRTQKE

On to `O=C(O)CCCC[C@@H]1SC[C@@H]2NC(=O)N[C@@H]21` [biotin, Biotin], for which the figures for the Ka in assay [1] and in assay [2] were 10^13-10^15 M^−1 and ~10^14 M^−1, respectively.

With `OC[C@H]1O[C@@H](O[C@H]2[C@H](O)[C@@H](O)C(O)O[C@@H]2CO)[C@H](O)[C@@H](O)[C@H]1O` (some centres unmarked) [lactose], the average rupture force in assay [3] (Fe^3+ surface immobilization of galectin 3) came out at 71 pN; in assay [3] (Ni^2+ surface immobilization of galectin 3), 72 pN. `CO[C@@H]1O[C@H](CO)[C@@H](O[C@@H]2O[C@H](CO)[C@H](O)[C@H](O)[C@H]2O)[C@H](O)[C@H]1O` [β-methyl lactoside]: in assay [4], the “association constant, the affinity measured by isothermal titration calorimetry” value was 6400±100.
